# Test results published in patent EP1733758A1, “Methods for administration of a farnesyl dibenzodiazepinone” (Ecopia Biosciences Inc., priority 2005, dated 2006).
# Columns and labels:
# [1] = Population pharmacokinetic analysis (NONMEM), mouse; format: in vivo; details: Mouse (IV)
# Experimental: (§1) An analysis was performed to derive allometric equations for Formula I pharmacokinetic parameters using Formula I plasma concentration-time data from three species, including mouse, rat, and monkey, and to estimate human pharmacokinetic parameters from those allometric equations.
# (§2) Plasma concentrations of Formula I were obtained from mice, rats, and monkeys following intravenous injection or continuous infusion. Formula I pharmacokinetic parameters in mice, rats, and monkeys were estimated using population pharmacokinetic analysis, a function of the software program NONMEM™ (version 5). Typical population pharmacokinetic parameters for Formula I in humans were extrapolated from allometric equations that were derived from pharmacokinetic parameters estimated in the three animal species.
# (§3) A two-compartment model with a first-order elimination from the central compartment adequately described Formula I plasma concentration-time profiles following intravenous bolus injection (30 mg/kg) in mice and rats, 7-day continuous infusion in rats (50 to 170 mg/kg/day), and 14-day continuous infusion in monkeys (5 to 30 mg/kg/day).
# U-87MG cell line = test: In vitro activity in the U-87MG cell line; format: cell-based; details: Homo sapiens
# [2] = system: human glioma (U-87MG) tumor xenograft; test: Human U-87MG glioblastoma xenograft antitumor efficacy study; format: in vivo, female athymic (nu/nu) nude mice; details: SC bolus 30 mg/kg q1d x 5 over 2 weeks
# Excerpt: In this model and the models of Examples 3, 6 and 7, tumor growth was followed every other day by measuring tumor length (L) and width (W) using a calliper. Measurements were converted to tumor volumes (TV; mm^3) using the standard formula, TV = (L xW^2)/2. Tumor volume at day n was expressed as relative tumor volume (RTV) according to the following formula RTV = TVn / TV0, where TVn is the tumor volume at day n and TV0 is the tumor volume at day 0. The percentage of tumor growth inhibition (%TGI) was determined by 1 ― (mean RTV of treated group/ mean RTV of control group) x 100. […] Statistical analysis was calculated by the two-tailed unpaired t test using the Prism software. Animals were weighed at least twice weekly during and after treatment until completion of the study. The mice were examined frequently for overt signs of any adverse drug-related side effects.
# The human U-87 MG (ATCC® no. HTB-14™) glioblastoma antitumor efficacy study was performed at INSERM U318 (Grenoble, France). […]
# For the human glioblastoma antitumor efficacy study, female athymic (nu/nu) nude mice (6-7 weeks of age) were inoculated SC with 5 x 10^6 U-87MG cells (day 0). […] Tumor growth inhibition (TGI) was calculated on day 34 post tumor cell inoculation, at which time some animals from the vehicle control group had to be sacrificed due to tumor burden.
# [3] = Population pharmacokinetic analysis (NONMEM), monkey; format: in vivo; details: for clearance: monkey, plasma, intravenous; for clearance / mean steady-state plasma concentration: monkeys, 14-day continuous infusion
# Experimental: as §1, §2, §3
# Application of a two-compartment model with Michaelis-Menten elimination better described the concentration data in monkeys than the linear model. Because the target concentration in humans is 2 µM, at which linear pharmacokinetics is assumed, all simulations for human plasma concentrations were performed based on a two-compartment model with linear first-order elimination.
# [4] = Toxicity of 14-day continuous intravenous infusion in monkeys; format: in vivo
# Experimental: Cynomolgus monkeys received continuous IV infusion over 14 days of Formula I at 5 mg/kg/day, 15 mg/kg/day, or 30 mg/kg/day. The drug was infused intravenously (24 hours/day) into the femoral vein at a dose rate of 2 ml/kg/hour for 14 consecutive days. Blood samples were removed from each monkey on Days 1, 2, 6, 10, and 15 of the treatment period. Monkeys were bled by venipuncture and samples were collected into tubes containing K2EDTA. On Day 1, samples were collected at 2, 6, and 12 hours after initiation of treatment. Additional samples were collected at 30 hours after the start of infusion (Day 2). On Days 6 and 10, samples were collected at approximately 6 hours after the bag changes. At the end of the 14 days of infusion, on Day 15, samples were collected at 1 hour prior to cessation of dose administration, and at 5 min, 30 min, 1 h, 2 h, 4 h, 8 h, and 24 h following cessation of dose administration.
# [5] = Pharmacokinetics and tissue distribution after bolus IV, IP, SC and PO administration in mice; format: in vivo, female Crl: CD1 mice; details: daily bolus administrations of 30 mg/kg (SC) or 20 mg/kg (IP)
# [6] = typical population PK parameter
# [7] = Monkey (CIV), typical population PK parameter
# [8] = 5 mg/kg/day (Example 9 analysis)
# [9] = 15 mg/kg/day (Example 9 analysis)
# [10] = 30 mg/kg/day (Example 9 analysis)
smiles,measurement,setting,value
"CC(C)=CCC/C(C)=C/CC/C(C)=C/CN1C(=O)c2cccc(O)c2Nc2c(O)cc(O)cc21 [Formula I, 10-farnesyl-4,6,8-trihydroxy-dibenzodiazepin-11-one]",Q,[1]; WT 0.022 Kg,0.001 L/h
same,V1,[1]; WT 0.022 Kg,0.004 L
same,V2,[1]; WT 0.022 Kg,0.005 L
same,Ke,[1]; [6],8.466 h⁻¹
same,Q,[1]; [6],1.09 mL/min/kg
same,V1,[1]; [6],0.176 L/kg
same,V2,[1]; [6],0.225 L/kg
same,IC50,U-87MG cell line,10.9 µM
same,body weight loss,[2],no significant body weight loss
same,%TGI,"[2]; day 34, P = 0.05",36%
same,Q,"[3]; Monkey (CIV), WT 3.8 Kg",0.151 L/h
same,V1,"[3]; Monkey (CIV), WT 3.8 Kg",0.771 L
same,V2,"[3]; Monkey (CIV), WT 3.8 Kg",1.59 L
same,Ke,[3]; [7],2.172 h⁻¹
same,Q,[3]; [7],0.663 mL/min/kg
same,V1,[3]; [7],0.203 L/kg
same,V2,[3]; [7],0.419 L/kg
same,clearance,[3]; [8],10.5 mL/min/kg
same,clearance,[3]; [9],9.5 mL/min/kg
same,clearance,[3]; [10],3.83 mL/min/kg
same,mean steady-state plasma concentration,[3]; [8],0.75 µM
same,mean steady-state plasma concentration,[3]; [9],2.57 µM
same,mean steady-state plasma concentration,[3]; [10],14.07 µM
same,compound associated toxicity,[4],no severe compound associated toxicity was observed
same,"degenerative changes in any organs, including the infusion site",[4],No degenerative changes
same,"effect on body weight, ocular condition, electrocardiographic activity and other parameters assessed",[4],no effect
same,"histological observations, reflected clearance of the vehicle used",[4],Diffuse vacuolization of hepatocytes and accumulation of foamy histiocytes (macrophages) in the spleen
same,side effects (reversible),[4],inappetance and a moderate degree of regenerative anemia
same,sustained plasma concentrations,[5],1 to 2 µM
